Measurements from patent US7872153B2, “Salt of aliskiren with sulfuric acid” (Novartis AG, priority 2006, dated 2011).

Key:
[1] = dynamic vapour sorption (DVS): water absorption or loss as a function of relative humidity; assay type: physicochemical; conditions: for change in mass in % (sorption) / change in mass in % (desorption): 25° C., 9.5 mg sample, 4 hours; for change in mass in % (sorption): cycle 0-95%; for change in mass in % (desorption): cycle 40-0
Text: A clear characterisation of this property is achieved by means of isothermal measurements over predetermined time intervals and predetermined relative humidity using dynamic vapour sorption (DVS from the company Surface Measurement Systems LTD, Marlow, Buckinghamshire, UK). […] The following cycles of changes in relative humidity are shown: 40-0; 0-95% relative humidity: The measurement error of this sorption method based on thermogravimetry is about 0.1%.

[2] = hygroscopicity of the drug substance (statement); assay type: physicochemical; conditions: background statement

water absorption or loss ([1]; above 40% relative humidity)	change in mass in % (sorption) ([1]; relative humidity 0%) [%]	change in mass in % (desorption) ([1]; relative humidity 0%) [%]	change in mass in % (sorption) ([1]; relative humidity 10%) [%]	change in mass in % (desorption) ([1]; relative humidity 10%) [%]	change in mass in % (sorption) ([1]; relative humidity 20%) [%]	change in mass in % (desorption) ([1]; relative humidity 20%) [%]	change in mass in % (sorption) ([1]; relative humidity 30%) [%]	change in mass in % (desorption) ([1]; relative humidity 30%) [%]	change in mass in % (sorption) ([1]; relative humidity 40%) [%]	change in mass in % (desorption) ([1]; relative humidity 40%) [%]	change in mass in % (sorption) ([1]; relative humidity 50%) [%]	change in mass in % (sorption) ([1]; relative humidity 60%) [%]	change in mass in % (sorption) ([1]; relative humidity 70%) [%]	change in mass in % (sorption) ([1]; relative humidity 80%) [%]	change in mass in % (sorption) ([1]; relative humidity 90%) [%]	change in mass in % (sorption) ([1]; relative humidity 95%) [%]	hygroscopicity [2]	SMILES	water uptake compared with the hemifumarate ([1]; below 40% relative humidity)
significant water absorption or loss	0.00	0.00	0.46	0.88	0.84	1.25	1.31	1.67	1.98	2.20	3.39	7.07	8.88	13.43	25.83	40.62	–	COCCCOc1cc(C[C@@H](C[C@H](N)[C@@H](O)C[C@H](C(=O)NCC(C)(C)C(N)=O)C(C)C)C(C)C)ccc1OC.O=S(=O)(O)O [hydrogen sulfate salt of aliskiren]	does not take up as much water as the hemifumarate
–	–	–	–	–	–	–	–	–	–	–	–	–	–	–	–	–	highly hygroscopic	COCCCOc1cc(C[C@@H](C[C@H](N)[C@@H](O)C[C@H](C(=O)NCC(C)(C)C(N)=O)C(C)C)C(C)C)ccc1OC [aliskiren, 2(S),4(S),5(S),7(S)—N-(3-amino-2,2-dimethyl-3-oxopropyl)-2,7-di(1-methylethyl)-4-hydroxy-5-amino-8-[4-methoxy-3-(3-methoxy-propoxy)phenyl]-octanamide]	–
